Results on two compounds are retold here after patent US20090130101A1, “ANTI-CANCER THERAPY WITH AN EXTRACT OF SCUTELLARIA BARBATA” (BIONOVO, INC., priority 2007, published 2009).

Assay [1] has as its system subcutaneous cancer xenografts. The format is in vivo, mice. The conditions noted are these: BZL101 0.5 ml oral gavage every third day; cyclophosphamide 25 mg/Kg/day in drinking water; FIG. 6. How it is done:
As in Example 1, above, 10^5 cells were administered to each animal subcutaneously on Day 0. The animals were divided into four groups. The control group received only normal drinking water. The cyclophosphamide only group received 25 mg/Kg/day of cyclophosphamide in their drinking water.

Assay [2] relates to ROS. Description: ROS generation, CM-H2DCFDA conversion. In kind it is cell-based. The conditions noted are these: incubation of cells with the ROS scavenger prior to addition of BZL101, FIG. 10.

Turning to `O=P1(N(CCCl)CCCl)NCCCO1` (centres unmarked) [cyclophosphamide], the tumor growth entry in assay [1] is reported as “inhibited tumor growth as compared to the control”.

Consider `CC(=O)N[C@@H](CS)C(=O)O` [N-acetyl-cysteine], for which the “effect on BZL101-induced ROS generation” value in assay [2] is “prevented most of the increase in ROS generation”.
